Source: paper PMC9040635 (RSC Advances, 2021)

What was measured:
[1] = test system: formalin-induced rat paw oedema; test: Formalin-induced hind rat paw oedema assay; format: in vivo; settings: low dose 10 mg kg^−1 b.w, intraperitoneal, mean ± SEM n = 5
COX-1 = molecular target: T1, COX-1 (Ovis aries, UniProt P05979); test: COX-1 inhibitory assay; format: biochemical; settings: Cyclooxygenase-1; ΔGexp = −RT ln IC50, T = 300 K
T1 sequence (P05979 25-600): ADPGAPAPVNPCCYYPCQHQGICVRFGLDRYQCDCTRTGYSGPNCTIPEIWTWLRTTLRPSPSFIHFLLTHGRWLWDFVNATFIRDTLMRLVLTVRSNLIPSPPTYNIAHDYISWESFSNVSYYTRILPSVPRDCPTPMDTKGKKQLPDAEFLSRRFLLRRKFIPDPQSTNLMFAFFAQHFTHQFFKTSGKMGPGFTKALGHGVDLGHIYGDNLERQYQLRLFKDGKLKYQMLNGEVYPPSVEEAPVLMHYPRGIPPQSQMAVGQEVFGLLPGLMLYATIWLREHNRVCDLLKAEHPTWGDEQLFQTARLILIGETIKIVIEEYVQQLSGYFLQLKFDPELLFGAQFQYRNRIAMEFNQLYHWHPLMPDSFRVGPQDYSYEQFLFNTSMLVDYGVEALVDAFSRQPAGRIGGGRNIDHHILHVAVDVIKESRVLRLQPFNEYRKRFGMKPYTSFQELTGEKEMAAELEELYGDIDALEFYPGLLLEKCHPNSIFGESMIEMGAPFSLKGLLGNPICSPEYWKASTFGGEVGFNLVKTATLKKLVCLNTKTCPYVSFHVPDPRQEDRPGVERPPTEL

ΔGexp (experimental binding free energy) (COX-1) [kJ/mol] | Structure (SMILES) | percentage reduction of rat paw oedema ([1]; 1 h) [%] | percentage reduction of rat paw oedema ([1]; 2 h) [%] | percentage reduction of rat paw oedema ([1]; 4 h) [%]
 | Cc1ccc(-c2cc(C(F)(F)F)nn2-c2ccc(S(N)(=O)=O)cc2)cc1 [Celecoxib] | 24.7 ± 2.2 | 31.4 ± 1.8 | 38.5 ± 1.7
-46 | COc1ccc2c(c1)c(CC(=O)O)c(C)n2C(=O)c1ccc(Cl)cc1 [Indomethacin] | 23.3 ± 2.2 | 31.0 ± 3.0 | 37.4 ± 2.8
